Residues, ends and D or L forms follow the SMILES beside them.
How the values were obtained:
[1] = test system: S. aureus (ATCC 25293); assay: In vitro anti-S. aureus CFU assay; format: cell-based, Staphylococcus aureus; details: 3 h, pH 5.4; for mean CFU number ± S.D.: per 0.1 mL
Summary of the method: (§1)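 Peptides (final 0.128, 0.064, 0.032 mg/mL), alone or with ZnCl2 or CuCl2 at M:L 0.9:1, were incubated with 10^3 CFU/well in PBS pH 5.4 plus 1.5% TSB at 37 °C with slow rocking for 3 and 24 h. Aliquots were plated on TSA and CFU counted after 24 h; triplicate.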

[2] = test system: C. albicans (ATCC 10231); assay: In vitro antifungal CFU assay; format: cell-based, Candida albicans; details: pH 5.4; for mean CFU number ± S.D.: per 0.1 mL
Summary of the method: as §1

[3] = test system: E. coli (ATCC 25922); assay: In vitro anti-E. coli CFU assay; format: cell-based, Escherichia coli; details: pH 5.4; for mean CFU number ± S.D.: per 0.1 mL
Summary of the method: as §1

[4] = peptide 0.032 mg/mL + CuCl2 (0.9:1)
[5] = peptide 0.032 mg/mL + ZnCl2 (0.9:1)
[6] = peptide 0.064 mg/mL + CuCl2 (0.9:1)
[7] = peptide 0.064 mg/mL + ZnCl2 (0.9:1)
[8] = peptide 0.128 mg/mL + CuCl2 (0.9:1)
[9] = peptide 0.032 mg/mL + CuCl2 (0.9:1), 3 h
[10] = peptide 0.032 mg/mL + CuCl2 (0.9:1), 24 h
[11] = peptide 0.032 mg/mL + ZnCl2 (0.9:1), 3 h
[12] = peptide 0.032 mg/mL + ZnCl2 (0.9:1), 24 h
[13] = peptide 0.064 mg/mL + CuCl2 (0.9:1), 3 h
[14] = peptide 0.064 mg/mL + CuCl2 (0.9:1), 24 h
[15] = peptide 0.064 mg/mL + ZnCl2 (0.9:1), 3 h
[16] = peptide 0.064 mg/mL + ZnCl2 (0.9:1), 24 h
[17] = peptide 0.128 mg/mL + CuCl2 (0.9:1), 3 h
[18] = peptide 0.128 mg/mL + CuCl2 (0.9:1), 24 h
[19] = peptide 0.128 mg/mL + ZnCl2 (0.9:1), 3 h
[20] = peptide 0.128 mg/mL + ZnCl2 (0.9:1), 24 h
[21] = peptide alone 0.032 mg/mL, 24 h
[22] = peptide alone 0.064 mg/mL, 24 h
[23] = peptide alone 0.128 mg/mL, 24 h

CC[C@H](C)[C@H](NC(=O)[C@H](C)NC(=O)[C@@H](NC(C)=O)C(C)C)C(=O)N[C@@H](C)C(=O)N[C@@H](CC(C)C)C(=O)N[C@@H](CCCCN)C(=O)N[C@@H](C)C(=O)N[C@@H](C)C(=O)N[C@@H](Cc1c[nH]cn1)C(=O)N[C@@H](Cc1ccc(O)cc1)C(=O)N[C@@H](Cc1c[nH]cn1)C(=O)N[C@H](C(=O)N[C@@H](Cc1c[nH]cn1)C(=O)N[C@@H](CCCCN)C(=O)N[C@@H](CCC(=O)O)C(=O)O)[C@@H](C)O [L1, Ac-VAIALKAAHYHTHKE] (Ac-VAIALKAAHYHTHKE-OH)
CFU decrease/increase with respect to untreated controls [1, 4]: +20% | mean CFU number ± S.D. [1, 4]: 193 ± 54 CFU | CFU decrease/increase with respect to untreated controls [1, 5]: +14% | mean CFU number ± S.D. [1, 5]: 183 ± 24 CFU | CFU decrease/increase with respect to untreated controls [1, 6]: +37% | mean CFU number ± S.D. [1, 6]: 221 ± 66 CFU | CFU decrease/increase with respect to untreated controls [1, 7]: +19% | mean CFU number ± S.D. [1, 7]: 191 ± 6 CFU | CFU decrease/increase with respect to untreated controls [1, 8]: +3% | mean CFU number ± S.D. [1, 8]: 166 ± 35 CFU | mean CFU number ± S.D. ([1]; peptide 0.128 mg/mL + ZnCl2 (0.9:1)): 87 ± 8 CFU | CFU decrease/increase with respect to untreated controls ([1]; peptide alone 0.032 mg/mL): +34% | mean CFU number ± S.D. ([1]; peptide alone 0.032 mg/mL): 215 ± 68 CFU | CFU decrease/increase with respect to untreated controls ([1]; peptide alone 0.064 mg/mL): -4% | mean CFU number ± S.D. ([1]; peptide alone 0.064 mg/mL): 155 ± 31 CFU | CFU decrease/increase with respect to untreated controls ([1]; peptide alone 0.128 mg/mL): +31% | mean CFU number ± S.D. ([1]; peptide alone 0.128 mg/mL): 211 ± 49 CFU | CFU decrease/increase with respect to untreated controls [2, 9]: -27.3% | mean CFU number ± S.D. [2, 9]: 40 ± 28 CFU | mean CFU number ± S.D. [2, 10]: 1,908 ± 160 CFU | CFU decrease/increase with respect to untreated controls [2, 11]: +16% | mean CFU number ± S.D. [2, 11]: 67 ± 4 CFU | CFU decrease/increase with respect to untreated controls [2, 12]: -2% | mean CFU number ± S.D. [2, 12]: 2,230 ± 326 CFU | CFU decrease/increase with respect to untreated controls [2, 13]: -27.3% | mean CFU number ± S.D. [2, 13]: 40 ± 24 CFU | mean CFU number ± S.D. [2, 14]: 1,576 ± 112 CFU | CFU decrease/increase with respect to untreated controls [2, 15]: +60% | mean CFU number ± S.D. [2, 15]: 88 ± 7 CFU | mean CFU number ± S.D. [2, 16]: 1,619 ± 165 CFU | CFU decrease/increase with respect to untreated controls [2, 17]: -27.3% | mean CFU number ± S.D. [2, 17]: 40 ± 11 CFU | mean CFU number ± S.D. [2, 18]: 1,428 ± 24 CFU | CFU decrease/increase with respect to untreated controls [2, 19]: +31% | mean CFU number ± S.D. [2, 19]: 72 ± 10 CFU | mean CFU number ± S.D. [2, 20]: 265 ± 108 CFU | mean CFU number ± S.D. ([2]; peptide alone 0.032 mg/mL, 3 h): 40 ± 10 CFU | mean CFU number ± S.D. [2, 21]: 1,789 ± 225 CFU | CFU decrease/increase with respect to untreated controls ([2]; peptide alone 0.064 mg/mL, 3 h): -1.8% | mean CFU number ± S.D. ([2]; peptide alone 0.064 mg/mL, 3 h): 54 ± 6 CFU | mean CFU number ± S.D. [2, 22]: 1,807 ± 433 CFU | CFU decrease/increase with respect to untreated controls ([2]; peptide alone 0.128 mg/mL, 3 h): -51% | mean CFU number ± S.D. ([2]; peptide alone 0.128 mg/mL, 3 h): 27 ± 0.6 CFU | mean CFU number ± S.D. [2, 23]: 1,666 ± 229 CFU | mean CFU number ± S.D. [3, 9]: 372 ± 16 CFU | CFU decrease/increase with respect to untreated controls [3, 10]: -15% | mean CFU number ± S.D. [3, 10]: 147 ± 6 CFU | mean CFU number ± S.D. [3, 11]: 343 ± 13 CFU | CFU decrease/increase with respect to untreated controls [3, 12]: -6% | mean CFU number ± S.D. [3, 12]: 163 ± 18 CFU | mean CFU number ± S.D. [3, 13]: 385 ± 24 CFU | mean CFU number ± S.D. [3, 14]: 58 ± 8 CFU | mean CFU number ± S.D. [3, 15]: 198 ± 7 CFU | CFU decrease/increase with respect to untreated controls [3, 16]: -13% | mean CFU number ± S.D. [3, 16]: 149 ± 7 CFU | mean CFU number ± S.D. [3, 17]: 151 ± 30 CFU | mean CFU number ± S.D. [3, 18]: 17 ± 18 CFU | mean CFU number ± S.D. [3, 19]: 45 ± 18 CFU | CFU decrease/increase with respect to untreated controls [3, 20]: +8% | mean CFU number ± S.D. [3, 20]: 187 ± 12 CFU | mean CFU number ± S.D. ([3]; peptide alone 0.032 mg/mL, 3 h): 749 ± 47 CFU | CFU decrease/increase with respect to untreated controls [3, 21]: +1% | mean CFU number ± S.D. [3, 21]: 174 ± 6 CFU | mean CFU number ± S.D. ([3]; peptide alone 0.064 mg/mL, 3 h): 634 ± 10 CFU | CFU decrease/increase with respect to untreated controls [3, 22]: -15% | mean CFU number ± S.D. [3, 22]: 146 ± 17 CFU | mean CFU number ± S.D. ([3]; peptide alone 0.128 mg/mL, 3 h): 625 ± 76 CFU | mean CFU number ± S.D. [3, 23]: 140 ± 11 CFU

From publication PMC10600247, “Impact of C- and N-terminal protection on the stability, metal chelation and antimicrobial properties of calcitermin” (Scientific Reports, 2023)
